From ChEMBL document CHEMBL1140430, “Novel indole-based peroxisome proliferator-activated receptor agonists: design, SAR, structural biology, and biological activities” (J Med Chem, 2005)
The source made the active and inactive calls. No cut-off for these calls is given here.

Key:
[1] = target: T1, Peroxisome proliferator-activated receptor gamma (Homo sapiens, UniProt P37231)
T1 sequence (P37231 whole entry): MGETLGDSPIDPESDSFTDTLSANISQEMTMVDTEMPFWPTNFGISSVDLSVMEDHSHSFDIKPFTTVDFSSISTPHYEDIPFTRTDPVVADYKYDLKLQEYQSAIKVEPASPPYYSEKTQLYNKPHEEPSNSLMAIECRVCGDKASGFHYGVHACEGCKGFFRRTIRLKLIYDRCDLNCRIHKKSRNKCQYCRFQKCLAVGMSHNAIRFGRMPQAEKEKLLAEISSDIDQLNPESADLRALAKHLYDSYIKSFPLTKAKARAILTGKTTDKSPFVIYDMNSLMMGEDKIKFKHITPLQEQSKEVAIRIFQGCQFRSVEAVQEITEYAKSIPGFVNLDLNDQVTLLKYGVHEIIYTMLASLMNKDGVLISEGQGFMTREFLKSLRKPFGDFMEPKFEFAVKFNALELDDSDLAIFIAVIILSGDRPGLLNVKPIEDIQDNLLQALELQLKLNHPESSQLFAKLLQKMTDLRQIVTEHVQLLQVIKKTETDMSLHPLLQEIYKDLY
Description: Displacement of [3H]rosiglitazone from human PPAR gamma by SPA assay

[2] = target: T1, Peroxisome proliferator-activated receptor gamma; assay type: functional, cell-based, Huh-7
Description: Functional activity at human PPAR gamma in Huh7 cells by transactivation assay

[3] = target: T2, Peroxisome proliferator-activated receptor delta (Homo sapiens, UniProt Q03181)
T2 sequence (Q03181 whole entry): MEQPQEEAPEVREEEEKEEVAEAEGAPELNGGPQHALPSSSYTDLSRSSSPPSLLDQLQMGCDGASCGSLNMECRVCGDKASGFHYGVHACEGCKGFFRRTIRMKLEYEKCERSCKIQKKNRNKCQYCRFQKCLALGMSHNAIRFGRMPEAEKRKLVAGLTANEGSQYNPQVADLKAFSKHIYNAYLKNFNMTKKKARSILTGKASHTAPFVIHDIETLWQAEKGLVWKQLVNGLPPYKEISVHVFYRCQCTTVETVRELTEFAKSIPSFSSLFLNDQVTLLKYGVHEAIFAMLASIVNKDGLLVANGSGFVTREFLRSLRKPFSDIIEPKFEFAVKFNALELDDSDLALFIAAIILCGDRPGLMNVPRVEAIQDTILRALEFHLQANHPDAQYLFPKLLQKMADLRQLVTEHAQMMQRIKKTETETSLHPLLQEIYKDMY
Description: Functional activity at human PPAR delta in Huh7 cells by transactivation assay

[4] = target: T3, Peroxisome proliferator-activated receptor alpha (Homo sapiens, UniProt Q07869); assay: Functional activity at human PPAR alpha in Huh7 cells by transactivation assay; assay type: cell-based, Huh-7
T3 sequence (Q07869 whole entry): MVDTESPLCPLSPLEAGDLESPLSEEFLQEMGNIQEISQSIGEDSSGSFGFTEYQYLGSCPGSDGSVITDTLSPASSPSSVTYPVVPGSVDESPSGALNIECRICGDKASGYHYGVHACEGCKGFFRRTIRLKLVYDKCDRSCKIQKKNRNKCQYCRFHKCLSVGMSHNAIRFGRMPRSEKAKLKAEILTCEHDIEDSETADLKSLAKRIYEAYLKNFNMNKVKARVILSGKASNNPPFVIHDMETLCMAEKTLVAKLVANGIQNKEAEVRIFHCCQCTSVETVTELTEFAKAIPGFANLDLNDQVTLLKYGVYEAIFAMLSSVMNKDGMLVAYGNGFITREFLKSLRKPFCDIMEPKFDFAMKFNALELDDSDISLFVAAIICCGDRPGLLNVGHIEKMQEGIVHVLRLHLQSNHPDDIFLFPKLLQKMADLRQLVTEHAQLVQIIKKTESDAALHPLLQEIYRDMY

[5] = system: Mus musculus; assay: Effect on reduction of plasma glucose in orally dosed KKAy/TaJcl mice at 30 mg/kg in a 10 day study; assay type: functional, organism-based; set-up: dose 30 mg/kg
[6] = system: Mus musculus; assay: Effect on reduction of plasma glucose in orally dosed KKAy/TaJcl mice at 10 mg/kg in a 10 day study; assay type: functional, organism-based; set-up: dose 10 mg/kg
[7] = Area under curve (0-24) in male BALB/c mice administered with 35 mg/kg, po; assay type: ADME, organism-based; set-up: dose 35 mg/kg, route oral; details: mouse, in vivo
[8] = Volume of distribution in male BALB/c mice administered with 9.7 mg/kg, iv; assay type: ADME, organism-based; set-up: dose 9.7 mg/kg, route intravenous; details: mouse, in vivo, read-out: Vss
[9] = Time taken to achieve maximum concentration in male BALB/c mice administered with 35 mg/kg, po; assay type: ADME, organism-based; set-up: dose 35 mg/kg, route oral; details: mouse, in vivo
[10] = Area under curve (0-24) in male BALB/c mice administered with 9.7 mg/kg, iv; assay type: ADME, organism-based; set-up: dose 9.7 mg/kg, route intravenous; details: mouse, in vivo
[11] = Half life in male BALB/c mice administered with 9.7 mg/kg, iv; assay type: ADME, organism-based; set-up: dose 9.7 mg/kg, route intravenous; details: mouse, in vivo
[12] = Clearance in male BALB/c mice administered with 9.7 mg/kg, iv; assay type: ADME, organism-based; set-up: dose 9.7 mg/kg, route intravenous; details: mouse, in vivo
[13] = Maximum concentration in male BALB/c mice administered with 35 mg/kg, po; assay type: ADME, organism-based; set-up: dose 35 mg/kg, route oral; details: mouse, in vivo
[14] = Oral bioavailability in male BALB/c mice administered with 35 mg/kg, po; assay type: ADME, organism-based; details: mouse, in vivo
[15] = Half life in male BALB/c mice administered with 35 mg/kg, po; assay type: ADME, organism-based; set-up: dose 35 mg/kg, route oral; details: mouse, in vivo

Compound | IC50 [1] [µM] | EC50 [2] [µM] | EC50 [3] [µM] | EC50 [4] [µM] | also measured
CCCc1c(OCC(C)COc2cccc3c2ccn3CC(=O)O)ccc2c(C(F)(F)F)noc12 (stereo not drawn) | 1.3 | 3.03 |  |  | 
CCCc1c(OCCCCOc2ccc3c(ccn3CC(=O)O)c2)ccc2c(C(F)(F)F)noc12 | 0.105 | 0.28 | 0.243 | 1.04 | 
CCCc1c(OCCCOc2ccc3c(ccn3Cc3nn[nH]n3)c2)ccc2c(C(F)(F)F)noc12 | 1.12 | 0.898 | 0.37 | 0.474 | 
CCCc1c(OCCCCCOc2cccc3c2ccn3CC(=O)O)ccc2c(C(F)(F)F)noc12 | 1.78 | > 10 |  |  | 
CCCc1c(OCCCOc2ccc3c(ccn3CC(=O)O)c2)ccc2c(C(F)(F)F)noc12 [listing 1 of 2 here] |  |  |  |  | Activity [5]: Active; Activity [6]: Active
CCCc1c(OCCCOc2ccc3c(ccn3CC(=O)O)c2)ccc2c(-c3ccccc3)noc12 | 0.12 | 0.29 | 0.08 | 0.018 | 
CCCc1c(OCCCOc2cccc3c2ccn3C(CC)C(=O)O)ccc2c(C(F)(F)F)noc12 (stereo not drawn) | 1.28 | > 10 |  |  | 
CCCc1c(OCCCOc2ccc3c(ccn3CC(=O)O)c2)ccc2c(C(=O)C(F)(F)F)c[nH]c12 | 2.41 | > 10 | 9.17 | 2.2 | 
CCCc1c(OCCOc2ccc3c(ccn3CC(=O)O)c2)ccc2c(C(F)(F)F)noc12 | 0.422 | 0.69 | 0.125 | 0.311 | 
CCCc1c(OCCCOc2cccc3c2ccn3CC(=O)O)ccc2c(C(F)(F)F)noc12 | 1.99 | 2.39 | 0.61 | 0.186 | 
CCCc1c(OCCCOc2cccc3c2ccn3CC(=O)O)ccc2c(-c3ccccc3)noc12 | 0.127 | 0.43 | 0.32 | 0.002 | 
CCCc1c(OCCCOc2ccc3c(ccn3CC(=O)O)c2)ccc2c(C#N)c[nH]c12 | 0.759 | 9.17 | 2.62 | 5.21 | 
CCCc1c(OCCCOc2ccc3c(ccn3CCC(=O)O)c2)ccc2c(C(F)(F)F)noc12 | 0.584 | 1.2 |  |  | 
CCCc1c(OCCCOc2cccc3c2ccn3CCC(=O)O)ccc2c(C(F)(F)F)noc12 | 1.1 | 2.19 |  |  | 
CCCc1c(OCCCOc2cccc3c2ccn3CC(=O)O)ccc2cc(-c3ccccc3)oc12 | 1.95 | > 10 | 7.74 | > 10 | 
CCCc1c(OCCCCCOc2ccc3c(ccn3CC(=O)O)c2)ccc2c(C(F)(F)F)noc12 | 1.05 | 1.49 |  |  | 
CCCc1c(OCCOc2cccc3c2ccn3CC(=O)O)ccc2c(C(F)(F)F)noc12 | 1.49 | > 10 |  |  | 
CCCc1c(OCCC(C)CCOc2ccc3c(ccn3CC(=O)O)c2)ccc2c(C(F)(F)F)noc12 (stereo not drawn) | 1.37 | > 10 |  |  | 
CCCc1c(OCCC(C)CCOc2cccc3c2ccn3CC(=O)O)ccc2c(C(F)(F)F)noc12 (stereo not drawn) | 1.45 | > 10 |  |  | 
CCCc1c(OCCCCOc2cccc3c2ccn3CC(=O)O)ccc2c(C(F)(F)F)noc12 | 0.774 | 1.98 | > 10 | > 10 | 
CCCc1c(OCCCOc2ccc3ccn(CC(=O)O)c3c2)ccc2c(C(F)(F)F)noc12 | 1.05 | 1.35 | 0.08 | 1.82 | 
CCCc1c(OCCCOc2ccc3c(ccn3CC(=O)O)c2)ccc2c(C(F)(F)F)noc12 [listing 2 of 2 here] |  |  |  | 0.014 | 
CCCc1c(OCCCOc2ccc3c(ccn3CC(=O)[O-])c2)ccc2c(C(F)(F)F)noc12.[Na+] |  |  |  |  | AUC [7]: 652 µg·h/mL; Vd [8]: 0.4 L/kg; Tmax [9]: 4.7 h; AUC [10]: 181 µg·h/mL; half-life [11]: 6.9 h; clearance [12]: 0.9 mL/min/kg; Cmax [13]: 59 µg/mL; bioavailability [14]: 100%; half-life [15]: 7.8 h
CCCc1c(OCCCOc2ccc3c(ccn3C(CC)C(=O)O)c2)ccc2c(C(F)(F)F)noc12 (stereo not drawn) | 1.71 | 5.9 |  |  | 
CCCc1c(OCCCOc2cccc3c2ccn3CC(=O)O)ccc2cc(-c3ccccc3)[nH]c12 | 1.68 | 2.82 | 3.34 | 0.5 | 
CCCc1c(OCCCOc2cccc3c2ccn3CC(=O)O)ccc2cc[nH]c12 | 4.81 | 1.81 | 0.42 | 1.21 | 
CCCc1c(OCCCOc2cccc3c2ccn3CC(=O)O)ccc2c(-c3ccccc3)coc12 | 3.97 | 4.15 | 2.13 | 0.169 | 
